Earlier results on 2 molecules are cited in patent US20070066602A1, “Process for Making Olanzapine Form I” (priority 2005, published 2007).

For data set [1] the following is noted: at pH 6.8; free base, crystalline solid.

Molecules are shown by their SMILES.

For the molecule `Cc1cc2c(s1)Nc1ccccc1N=C2N1CCN(C)CC1.O=C(O)c1ccccc1` [Olanzapine benzoate], the “solubility in water (qualitative)” value is “sparingly soluble in water”. For the molecule `Cc1cc2c(s1)Nc1ccccc1N=C2N1CCN(C)CC1` [olanzapine, Olanzapine], the “solubility in water (qualitative)” value is “insoluble in water”. Moreover, in data set [1], the solubility entry is “about 0.02 mg/ml”.
